The values below come from patent US4454139A, “α2 -Adrenoceptor antagonistic benzoquinolizines” (John Wyeth & Brother, Limited, priority 1980, dated 1984).

SMILES strings stand for the structures.

The target of assay [1] is T1, postsynaptic (α1) α-adrenoceptor (Rattus norvegicus, UniProt P43140).
T1 construct: the isolated anococcygeus muscle of the rat; from tissue; host or cells: rat anococcygeus muscle (male rats, 250-360 g)
T1 sequence (P43140 1-466): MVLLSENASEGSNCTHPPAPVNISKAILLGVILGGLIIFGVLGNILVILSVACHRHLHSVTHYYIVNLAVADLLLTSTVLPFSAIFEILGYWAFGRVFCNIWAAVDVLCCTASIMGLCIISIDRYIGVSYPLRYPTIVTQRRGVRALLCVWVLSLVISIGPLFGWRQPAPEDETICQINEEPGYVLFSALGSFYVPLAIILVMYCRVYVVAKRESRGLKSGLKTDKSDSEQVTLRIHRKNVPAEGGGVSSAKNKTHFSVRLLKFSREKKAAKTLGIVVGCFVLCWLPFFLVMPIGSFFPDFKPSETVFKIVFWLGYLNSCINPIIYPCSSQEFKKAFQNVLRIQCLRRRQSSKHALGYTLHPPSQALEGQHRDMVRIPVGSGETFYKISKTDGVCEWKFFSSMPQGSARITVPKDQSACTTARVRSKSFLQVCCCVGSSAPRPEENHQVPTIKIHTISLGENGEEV
The experiment in a line: postsynaptic (α1) antagonistic activity on the isolated anococcygeus muscle of the rat (phenylephrine or methoxamine agonist). The format is cell-based. The following applies: rat anococcygeus muscle; phenylephrine or methoxamine as agonist; α1; read-out: pA2 (postsynaptic) (converted). The text has this:
(§1) The postsynaptic(α1)antagonistic activity can be evaluated by a number of different methods. One method involves assessing the activity on the isolated anococcygeus muscle of the rat. The method is based on that of Gillespie, Br.J.Pharmac., 1972, 45, 404-416. In the procedure male rats (250-360 g) are killed by a blow on the head and bled. The two anococcygeus muscles are removed from their position in the midline of the pelvic cavity, where they arise from the upper coccygeal vertebrae. The muscles are suspended in 5 ml organ baths in Krebs solution containing 10^-4 M ascorbic acid, to prevent drug oxidation. The tissues are gassed with a 95% oxygen, 5% CO2 mixture and maintained at 37°. Longitudinal muscle contractions are recorded using isotonic transducers. Cumulative dose response curves are then obtained to phenylephrine or in some cases methoxamine, both agents being postsynaptic alpha adrenoceptor agonists. The concentration range of phenylephrine or methoxamine used is 0.02 to 0.8 μg.ml^-1. The agonist is then washed from the bath and the test drug added to the bathing medium at a concentration of 10^-6 M. After 30 min. equilibration with the test drug a further agonist dose response curve is obtained. The washing, equilibration and agonists dosing procedures are then repeated using 10^-5 M and 10^-4 M solutions of the test drug. Estimates of the pA2 value for the test drug as an antagonist of phenylephrine or methoxamine were made from the agonist dose-ratios using the method of Arunlakshana & Schild, Br.J.Pharmac.Chemother., 1959, 14, 48-58.

The subject of assay [2] is postsynaptic (α1) α-adrenoceptor. Described as above. The format is cell-based.
Text: as §1

The target of assay [3] is T2, α2 (presynaptic α)-adrenoceptor (Rattus norvegicus, UniProt P22909).
T2 construct: from tissue; host or cells: rat vas deferens (desheathed, field stimulated)
T2 sequence (P22909 1-465): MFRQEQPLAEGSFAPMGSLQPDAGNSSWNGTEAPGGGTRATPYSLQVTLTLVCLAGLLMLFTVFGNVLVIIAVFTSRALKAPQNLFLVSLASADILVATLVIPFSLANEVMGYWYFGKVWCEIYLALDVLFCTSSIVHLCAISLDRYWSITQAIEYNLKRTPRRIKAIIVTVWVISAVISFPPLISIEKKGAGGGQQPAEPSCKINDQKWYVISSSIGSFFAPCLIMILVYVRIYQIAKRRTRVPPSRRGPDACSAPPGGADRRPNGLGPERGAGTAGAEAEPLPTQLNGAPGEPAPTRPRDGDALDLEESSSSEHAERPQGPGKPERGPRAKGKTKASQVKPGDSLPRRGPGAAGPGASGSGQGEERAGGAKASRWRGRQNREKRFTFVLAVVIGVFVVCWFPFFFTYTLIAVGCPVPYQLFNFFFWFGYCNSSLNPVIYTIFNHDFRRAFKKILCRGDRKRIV
Kind of assay: α2-adrenoceptor antagonistic activity on the rat field stimulated vas deferens preparation (clonidine agonist). It counts as cell-based. The following applies: clonidine as agonist, Arunlakshana & Schild; for Kb: read-out: pA2 (α2) (converted); for pA2 (α2): 90 min. Here is the method:
The compounds of the invention were tested for their α2 -adrenoceptor antagonistic activity on the rat field stimulated vas deferens preparation using a modification of the method of Drew, Eur.J.Pharmac., 1977, 42, 123-130. The procedure is described below. […] from sexually mature rats were suspended in a 6 ml organ bath in Krebs solution at 37° and bubbled with 5% CO2 in oxygen. Platinum ring electrodes were positioned above and below the tissue for field stimulation, the stimulus parameters being 0.1 Hz 1 ms pulse width at supramaximal voltage. Twitch responses were recorded isotonically with a 0.5 g loading. […] After washing out clonidine, the twitch response quickly recovered and an antagonist was then introduced into the Krebs reservoir. Clonidine concentration-response curves were repeated 90 min after introduction of the antagonist. The concentration of clonidine producing 50% inhibition of twitch before and after introduction of antagonist were obtained and the dose-ratio for clonidine was calculated. Various concentrations of the antagonists were used. […] Chemother., 1959, 14, 48-58 and the values of pA2 and slope were calculated.

Another assay deals with human blood platelets. Kind of assay: inhibition of adrenaline-induced aggregation in vitro of human blood platelets. The format is cell-based.
In assay [4] the test system is hyperglycaemia induced by the α2 agonist clonidine. The experiment in a line: inhibition of clonidine-induced hyperglycaemia in rats. It counts as in vivo, rat. The following applies: 10 mg/kg, clonidine 15 μg/kg subcutaneous.

On to `CN([C@@H]1CCN2CCc3ccccc3[C@@H]2C1)S(=O)(=O)c1ccc(Cl)cc1` (relative stereo) [H, N-Methyl-N-(1,3,4,6,7,11bα-hexahydro-2H-benzo[a]quinolizin-2β-yl)-4-chlorobenzenesulphonamide], for which the Kb in assay [1] was 813 nM; in assay [3] it was 25.1 nM. Moreover, the α2 selectivity in assay [2] stood at 32.

As for `CCCS(=O)(=O)N[C@@H]1CCN2CCc3ccccc3[C@@H]2C1` (relative stereo) [2β-(n-propanesulphonamido-1,3,4,6,7,11bα-hexahydro-2H--benzo[a]quinolizine, reference compound], the Kb in assay [3] is 316 nM.

Consider `CN([C@@H]1CCN2CCc3ccccc3[C@@H]2C1)S(=O)(=O)c1ccc(Cl)c(Cl)c1` (relative stereo) [J, N-Methyl-N-(1,3,4,6,7,11bα-hexahydro-2H-benzo[a]quinolizin-2β-yl)-3,4-dichlorobenzenesulphonamide], for which the Kb in assay [1] is 3310 nM; in assay [3], 31.6 nM. The compound also showed a α2 selectivity in assay [2] of 93.

With `CCCS(=O)(=O)N(C)[C@@H]1CCN2CCc3ccccc3[C@@H]2C1` (relative stereo) [C, N-Methyl-N-(1,3,4,6,7,11bα-hexahydro-2H-benzo[a]quinolizin-2β-yl)propan-1-sulphonamide], the “inhibition of the aggregation in vitro of human blood platelets induced by adrenaline” value with human blood platelets was “inhibit the aggregation”. Moreover, the results for the Kb in assay [1] and in assay [3] were 724 nM and 5.01 nM, respectively. The α2 selectivity in assay [2] worked out at 144.

Consider `CCN([C@@H]1CCN2CCc3ccccc3[C@@H]2C1)S(C)(=O)=O` (relative stereo) [E, N--Ethyl-N--(1,3,4,6,7,11bα-hexahydro-2H--benzo[a]quinolizin-2-62-yl)methanesulphonamide], for which the Kb in assay [1] was 562 nM; in assay [3] it was 15.8 nM. For the same compound, the α2 selectivity in assay [2] came out at 35.5.

With `S=C(Nc1ccccc1)NC1CCN2CCc3ccccc3C2C1` (centres unmarked) [1-(1,3,4,6,7,11b-hexahydro-2H--benzo[a]quinolizin-2yl)-3-phenylthiourea, reference compound], the Kb in assay [3] is 2510 nM.

Take `O=S(=O)(NC1CCN2CCc3ccccc3C2C1)c1ccccc1` (stereo not drawn) [2β-phenylsulphonamido-1,3,4,6,7,11b-hexahydro-2H--benzo[a]quinolizine, reference compound]: the “pA2 (α2)” value in assay [3] came to 6.4.

`Cc1ccc(S(=O)(=O)N(C)[C@@H]2CCN3CCc4ccccc4[C@@H]3C2)cc1` (relative stereo) [F, N-Methyl-N-(1,3,4,6,7,11bα-hexahydro-2H-benzo[a]quinolizin-2β-yl)toluene-4-sulphonamide]: the Kb in assay [1] was 468 nM; in assay [3], 7.94 nM. Also, the α2 selectivity in assay [2] came out at 59.

On to `COc1ccc(S(=O)(=O)N(C)[C@@H]2CCN3CCc4ccccc4[C@@H]3C2)cc1` (relative stereo) [G, N-Methyl-N-(1,3,4,6,7,11bα-hexahydro-2H-benzo[a]quinolizin-2β-yl)-4-methoxybenzenesulphonamide], for which the Kb is 316 nM in assay [1] and 7.94 nM in assay [3]. Further, the α2 selectivity in assay [2] is listed as 40.

As to `CCCCS(=O)(=O)N(C)[C@@H]1CCN2CCc3ccccc3[C@@H]2C1` (relative stereo) [K, N-Methyl-N-(1,3,4,6,7,11bα-hexahydro-2H-benzo[a]quinolizin-2β-yl)-n-butanesulphonamide], the Kb is 251 nM in assay [1] and 12.6 nM in assay [3]. Moreover, the α2 selectivity in assay [2] is 19.

With `CCCN([C@@H]1CCN2CCc3ccccc3[C@@H]2C1)S(C)(=O)=O` (relative stereo) [N--(n-Propyl)-N--(1,3,4,6,7,11bα-hexahydro-2H--benzo[a]quinolizin-2β-yl)methanesulphonamide, reference compound], the Kb in assay [3] was 100 nM.

With `CCS(=O)(=O)NC1CCN2CCc3ccccc3C2C1` (centres unmarked) [2βethanesulphonamido-1,3,4,6,7,11b-hexahydro-2H--benzo[a]quinolizine, reference compound], the “pA2 (α2)” value in assay [3] was determined as 5.3.

For the compound `CC(C)CS(=O)(=O)N(C)[C@@H]1CCN2CCc3ccccc3[C@@H]2C1` (relative stereo) [L, N-Methyl-N-(1,3,4,6,7,11bα-hexahydro-2H-benzo[a]quinolizin-2β-yl)-isobutanesulphonamide], the “inhibition of the hyperglycaemia induced by clonidine” value in assay [4] is on record as “inhibited the hyperglycaemia”. In addition, the Kb in assay [1] is 324 nM; in assay [3], 3.16 nM. This compound came in with a α2 selectivity in assay [2] of 93.

Take `CS(=O)(=O)NC1CCN2CCc3ccccc3C2C1` (centres unmarked) [2-methanesulphonamido-1,3,4,6,7,11b-hexahydro-2H--benzo[a]quinolizine, reference compound]: in assay [3], the Kb is 126 nM.

As for `COc1cc2c(cc1OC)[C@@H]1C[C@H](N(C)S(C)(=O)=O)CCN1CC2` (relative stereo) [N--methyl-N--(9,10-dimethoxy-1,3,4,6,7,11bα-hexahydro-2H--benzo[a]quinolizin-2β-yl)-methanesulphonamide, reference compound], the Kb in assay [3] is 158 nM.

For the compound `O=C(Nc1ccccc1)NC1CCN2CCc3ccccc3C2C1` (centres unmarked) [1-(1,3,4,6,7,11b-hexahydro-2H benzo[a]quinolizin-2yl)-3-phenyl urea, reference compound], the Kb in assay [3] is 3980 nM.

Take `CCS(=O)(=O)N(C)[C@@H]1CCN2CCc3ccccc3[C@@H]2C1` (relative stereo) [B, N-Methyl-N-(1,3,4,6,7,11bα-hexahydro-2H-benzo[a]quinolizin-2β-yl)ethanesulphonamide]: the Kb in assay [1] was 676 nM; in assay [3], 20 nM. Moreover, in assay [2], the α2 selectivity is reported as 34.

In the case of `Cc1ccccc1S(=O)(=O)N(C)[C@@H]1CCN2CCc3ccccc3[C@@H]2C1` (relative stereo) [I, N-Methyl-N-(1,3,4,6,7,11bα-hexahydro-2H-benzo[a]quinolizin-2β-yl)-2-methylbenzenesulphonamide], the Kb in assay [1] was 537 nM; in assay [3], 12.6 nM. The α2 selectivity in assay [2] is recorded as 40.

For `CN([C@@H]1CCN2CCc3ccccc3[C@@H]2C1)S(=O)(=O)c1ccccc1` (relative stereo) [D, N-methyl-N-(1,3,4,6,7,11bα-hexahydro-2H-benzo[a]quinolizin-2β-yl)benzenesulphonamide], the “inhibition of the hyperglycaemia induced by clonidine” value in assay [4] is listed as “inhibited the hyperglycaemia”. Moreover, the Kb in assay [1] was 457 nM; in assay [3] it was 3.98 nM. Moreover, the α2 selectivity in assay [2] came out at 102.
